Strand notation (5' to 3'): a small letter for the sugar, then the base; units joined by * are phosphorothioate-linked, units joined directly phosphodiester-linked; [ ] holds rarer units or linkages, { } end groups; capitals alone tell only the bases. e = 2'-O-(2-methoxyethyl) (MOE); [5mC] = 5-methylcytosine; d = 2'-deoxy (DNA)
Experiments:
[1] = Solubility of the enhancer system in phosphate buffer saline
[2] = Bioavailability of antisense oligonucleotide after intra-jejunal dosing through a catheter, plasma level by anion-exchange chromatography (Example 3); type: in vivo, male rhesus monkeys; settings: rhesus monkey, po
From the text: The compositions were compared by administering them in solution form through a catheter to test subjects. A jejunal catheter is surgically implanted in six male rhesus monkeys (3-5 years, 3-5 Kg) under anesthesia. The catheters are attached to a subcutaneous access port to allow dosing through the port into the jejunum. The animals are allowed to recover at least 7 days prior to dosing. […] The antisense oligonucleotide is detected by anion-exchange chromatography. The formulations and the measurements of bioavailability, Tmax and plasma peak of antisense oligonucleotide after administration of formulations are described in the chart below.

| Compound | Solubility in phosphate buffer saline [1] | permeability without any permeation enhancer systems [2] |
| --- | --- | --- |
| CCCCCCCCCCC(CCCCCCCC)C(=O)[O-].[Na+] (centres unmarked) [sodium 2-n-octyl-dodecanoate] | not fully soluble | – |
| antisense oligonucleotide: 5-10-5 MOE gapmer phosphorothioate, 5-methylcytosines, targets human TNF-α; GCTGATTAGAGAGAGGTCCC (antisense eG*e[5mC]*eT*eG*eA*dT*dT*dA*dG*dA*dG*dA*dG*dA*dG*eG*eT*e[5mC]*e[5mC]*e[5mC]) | – | poor permeability |

From US7820722B2, “Permeation enhancers” (Merrion Research III Limited, priority 2001, dated 2010)
